In paper PMC9962200, “Selectively Modified Lactose and N-Acetyllactosamine Analogs at Three Key Positions to Afford Effective Galectin-3 Ligands” (International Journal of Molecular Sciences, 2023):
pKd: −log10 of the molar value. Counter-ions that a name gives are not always drawn.

Target: T1, human galectin-3 (hGal-3) (Homo sapiens, UniProt P17931)
T1 construct: P.K. and P.B. prepared recombinant full-length hGal-3 and contributed to the ITC experiments; made in house
Assay: Isothermal titration calorimetry (ITC) of sugar analogs with recombinant hGal-3
Assay type: binding
Settings: 27 °C; for −ΔH: binding enthalpy, lectin monomer units, errors 1–4%; for −ΔG: calculated from ΔG = -RT ln(Ka), errors less than 2%; for −TΔS: calculated from ΔG = ΔH − TΔS; for −TΔS / pKd: errors 1–7%; for n Sites/ Monomer: number of binding sites per hGal-3 monomer, errors less than 4%; for pKd / Ka: pH 7.2, 20 mM PBS buffer; for pKd: recombinant hGal-3, Kd calculated from 1/Ka; for Ka: recombinant hGal-3, errors 1–7%; for Relative Potencies: relative to methyl lactoside 1 = 1.0
Protocol: The Kd value of PNP LacNAc (20) was similar to that of its propargyl Lac analog 11.
ITC experiments were performed using a VP-ITC instrument from GE. Injections of 4 µL of carbohydrate solutions were added from a computer-controlled micro syringe at an interval of 4 min into the sample solution of hGal-3 (cell volume = 1.43 mL) with stirring at 350 rpm. Control experiments were performed by injecting the carbohydrates into a cell containing only buffer. The concentration range of hGal-3 was 90–130 µΜ, and the concentrations of the carbohydrates were 15–25 mM based on the dry weight molecular weights of the latter molecules. The concentration of hGal-3 was based on its molecular mass. Titrations were done at 27 °C (pH 7.2) using 20 mM PBS buffer. The experimental data were fitted to a theoretical titration curve using software supplied by the vendor, with ΔH (binding enthalpy in kcal mol^−1) (lectin monomer units), Ka (association constant) and n (number of binding sites per monomer), as adjustable parameters. The Kd (dissociation constant) was calculated from 1/Ka. The quantity c = Ka Mt (0), where Mt (0) is the initial macromolecule concentration, is of importance in titration microcalorimetry. All experiments were performed with c values 1 < c < 500. The instrument was calibrated using the calibration kit containing ribonuclease A (RNase A) and cytidine 2′-monophosphate (2′-CMP) supplied by the manufacturer. Thermodynamic parameters were calculated from the Gibbs Free Energy equation, ΔG = ΔH − TΔS = -RT ln(Ka), where ΔG, ΔH, and ΔS are the changes in free energy, enthalpy, and entropy of binding, respectively. T is the absolute temperature and R = 1.98 cal mol^−11 K^−1.

T1 sequence (P17931 whole entry): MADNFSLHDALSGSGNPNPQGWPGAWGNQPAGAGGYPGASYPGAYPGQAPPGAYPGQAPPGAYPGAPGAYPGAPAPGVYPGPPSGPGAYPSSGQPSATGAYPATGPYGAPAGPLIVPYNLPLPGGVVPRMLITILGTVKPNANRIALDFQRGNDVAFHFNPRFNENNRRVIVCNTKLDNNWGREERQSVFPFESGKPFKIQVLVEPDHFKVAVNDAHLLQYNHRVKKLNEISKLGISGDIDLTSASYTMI

SMILES | −ΔH | −ΔG | −TΔS | n Sites/ Monomer | pKd | Ka | Relative Potencies
CO[C@@H]1O[C@H](CO)[C@@H](O[C@@H]2O[C@H](CO)[C@H](O)[C@H](O)[C@H]2O)[C@H](O)[C@H]1O [Compound 1, methyl 4-O-β-D-galactopyranosyl-β-D-glucopyranoside, reference compound] | 3.9 kcal/mol | 5.5 kcal/mol | -1.6 kcal/mol | 1.08 | 4.04 | 1.1 10^4 M^−1 | 1.0
C#CCO[C@@H]1O[C@H](CO)[C@@H](O[C@@H]2O[C@H](CO)[C@H](O)[C@H](O)[C@H]2O)[C@H](O)[C@H]1O [Compound 4, Propargyl (β-D-Galactopyranosyl)-(1→4)-β-D-Glucopyranoside] | 5.7 kcal/mol | 5.9 kcal/mol | -0.2 kcal/mol | 0.98 | 4.32 | 2.1 10^4 M^−1 | 1.9
O=[N+]([O-])c1ccc(O[C@@H]2O[C@H](CO)[C@@H](O[C@@H]3O[C@H](CO)[C@H](O)[C@H](O)[C@H]3O)[C@H](O)[C@H]2O)cc1 [Compound 6, 4-Nitrophenyl (β-D-Galactopyranosyl)-(1→4)-β-D-Glucopyranoside] | 3.7 kcal/mol | 5.9 kcal/mol | -2.2 kcal/mol | 1.10 | 4.30 |  | 1.8
C#CCO[C@@H]1O[C@H](CO)[C@@H](O[C@@H]2O[C@H](CO)[C@H](O)[C@H](OS(=O)(=O)O)[C@H]2O)[C@H](O)[C@H]1O [Compound 11, Propargyl (3-O-Sulfo-β-D-Galactopyranosyl)-(1→4)-β-D-Glucopyranoside Sodium Salt] | 3.8 kcal/mol | 6.1 kcal/mol | -2.3 kcal/mol | 1.08 | 4.43 | 2.7 10^4 M^−1 | 2.5
O=[N+]([O-])c1ccc(O[C@@H]2O[C@H](CO)[C@@H](O[C@@H]3O[C@H](CO)[C@H](O)[C@H](OS(=O)(=O)O)[C@H]3O)[C@H](O)[C@H]2O)cc1 [Compound 12, 4-Nitrophenyl (3-O-Sulfo-β-D-Galactopyranosyl)-(1→4)-β-D-Glucopyranoside Sodium Salt] | 6.0 kcal/mol | 6.4 kcal/mol | -0.4 kcal/mol | 0.97 | 4.69 | 4.9 10^4 M^−1 | 4.5
CC(=O)N[C@H]1[C@H](Oc2ccc([N+](=O)[O-])cc2)O[C@H](CO)[C@@H](O[C@@H]2O[C@H](CO)[C@H](O)[C@H](O)[C@H]2O)[C@@H]1O [Compound 20, 4-Nitrophenyl (β-D-Galactopyranosyl)-(1→4)-2-Acetamido-2-Deoxy-β-D-Glucopyranoside] | 7.3 kcal/mol | 6.1 kcal/mol | 1.2 kcal/mol | 1.05 | 4.48 | 3.0 10^4 M^−1 | 2.7
CC(=O)N[C@H]1[C@H](Oc2ccc([N+](=O)[O-])cc2)O[C@H](CO)[C@@H](O[C@@H]2O[C@H](CO)[C@H](O)[C@H](OS(=O)(=O)O)[C@H]2O)[C@@H]1O [Compound 23, 4-Nitrophenyl (3-O-Sulfo-β-D-Galactopyranosyl)-(1→4)-2-Acetamido-2-Deoxy-β-D-Glucopyranoside Sodium Salt] | 3.3 kcal/mol | 6.3 kcal/mol | -3.0 kcal/mol | 0.96 | 4.65 | 4.5 10^4 M^−1 | 4.1
C#CCO[C@@H]1O[C@H](CO)[C@@H](O[C@@H]2O[C@H](CO)[C@H](O)[C@H](O)[C@H]2O)[C@H](O)[C@H]1NC(C)=O [Compound 27, Propargyl (β-D-Galactopyranosyl)-(1→4)-2-Acetamido-2-Deoxy-β-D-Glucopyranoside] | 4.2 kcal/mol | 6.0 kcal/mol | -1.8 kcal/mol | 1.10 | 4.42 | 2.6 10^4 M^−1 | 2.4
C#CCO[C@@H]1O[C@H](CO)[C@@H](O[C@@H]2O[C@H](CO)[C@H](O)[C@H](OS(=O)(=O)O)[C@H]2O)[C@H](O)[C@H]1NC(C)=O [Compound 30, Propargyl (3-O-Sulfo-β-D-Galactopyranosyl)-(1→4)-2-Acetamido-2-Deoxy-β-D-Glucopyranoside Sodium Salt] | 5.2 kcal/mol | 6.6 kcal/mol | -1.4 kcal/mol | 1.07 | 4.83 | 6.8 10^4 M^−1 | 6.2
C#CCO[C@@H]1O[C@H](CO)[C@@H](O[C@@H]2O[C@H](CO)[C@H](O)[C@H](OCC(=O)O)[C@H]2O)[C@H](O)[C@H]1NC(C)=O [Compound 32, Propargyl (3-O-Carboxymethyl-β-D-Galactopyranosyl)-(1→4)-2-Acetamido-2-Deoxy-β-D-Glucopyranoside Sodium Salt] | 4.3 kcal/mol | 5.8 kcal/mol |  | 1.10 | 4.28 | 1.9 10^4 M^−1 | 1.7
C#CCOC1OC(CO)C(OC2OC(CO)C(O)C(OC3(C(=O)O)CC(O)C(NC(C)=O)C(C(O)C(O)CO)O3)C2O)C(O)C1NC(C)=O (stereo not drawn) [Compound 33] | 5.9 kcal/mol | 5.7 kcal/mol | 0.2 kcal/mol | 1.04 | 4.20 | 1.6 10^4 M^−1 | 1.5
